Test results as given in patent US11603349B2, “Anti-fibrotic compounds” (Certa Therapeutics Pty Ltd, priority 2017, dated 2023).
Where a name gives a salt, the structure may show the parent alone.

Experiments:
[1] = MTS tetrazolium reduction cell viability assay; conditions: rat, rat mesangial cells (1097/IRMC cells), TGF-β1 stimulated, CC50 (μM), vs 1% DMSO vehicle
[2] = test system: TGF-β induced [14C]-proline incorporation in rat mesangial cells; experiment: [14C]-proline incorporation assay (collagen biosynthesis); assay type: cell-based; conditions: Rattus norvegicus, Mesangial cell, 44 h, inhibition of TGF-β1 (1 ng/ml) induced [14C]-proline incorporation, IRMC cells

SMILES	CC50 at 48 h [1]	IC50 [2]
C#CCOc1ccc(/C=C/C(=O)Nc2ccccc2-c2n[nH]c(C)n2)cc1OC [Example 2, (E)-3-(3-methoxy-4-(prop-2-yn-1-yloxy)phenyl)-N-(2-(5-methyl-1H-1,2,4-triazol-3-yl)phenyl)acrylamide]	> 300 µM	10.4 µM
C#CCOc1ccc(/C=C/C(=O)Nc2ccccc2C#N)c(OCCN(C)C)c1OC [Example 77]	26.5 µM	4.69 µM
COc1cc(/C=C/C(=O)Nc2ccccc2C(=O)O)ccc1OCCc1ccncc1 [Example 59, (E)-2-(3-(3-methoxy-4-(2-(pyridin-4-yl)ethoxy)phenyl)acrylamido)benzoic acid]	148 µM	12.1 µM
C#CCOc1ccc(/C=C/C(=O)Nc2ccccc2-c2noc(=O)[nH]2)cc1OC [Example 19, (E)-3-(3-methoxy-4-(prop-2-yn-1-yloxy)phenyl)-N-(2-(5-oxo-4,5-dihydro-1,2,4-oxadiazol-3-yl)phenyl)acrylamide]	122 µM	19.7 µM
C#CCOc1ccc(/C=C/C(=O)N2CCC(O)c3ccccc32)cc1OC (stereo not drawn) [Example 14, (E)-1-(4-hydroxy-3,4-dihydroquinolin-1(2H)-yl)-3-(3-methoxy-4-(prop-2-yn-1-yloxy)phenyl)prop-2-en-1-one]	48.9 µM	10.4 µM
COc1ccc(/C=C/C(=O)Nc2ccccc2C(=O)O)cc1COC1CCN(C)CC1 [Example 70, (E)-2-(3-(4-methoxy-3-(((1-methylpiperidin-4-yl)oxy)methyl)phenyl)acrylamido)benzoic acid]	> 300 µM	49.8 µM
COc1cc(/C=C/C(=O)Nc2ccccc2C(=O)O)ccc1OCCc1cccnc1 [Example 57, (E)-2-(3-(3-methoxy-4-(2-(pyridin-3-yl)ethoxy)phenyl)acrylamido)benzoic acid]	> 76.6 µM	9.37 µM
C#CCOc1ccc(/C=C/C(=O)Nc2ccccc2C#N)c(OC2CCN(C)CC2)c1OC [Example 89, (E)-N-(2-cyanophenyl)-3-[3-methoxy-2-[(1-methyl-4-piperidyl)oxy]-4-prop-2-ynoxy-phenyl]prop-2-enamide]	19.8 µM	4.66 µM
C#CCOc1ccc(/C=C/C(=O)Nc2ccccc2C(=O)O)c(OCCN2CCOCC2)c1OC [Example 84, 2-[[(E)-3-[3-methoxy-2-(2-morpholinoethoxy)-4-prop-2-ynoxy-phenyl]prop-2-enoyl]amino]benzoic acid]	> 300 µM	14.7 µM
C#CCOc1ccc(/C=C/C(=O)Nc2ccccc2-c2ncon2)cc1OC [Example 17, (E)-N-(2-(1,2,4-oxadiazol-3-yl)phenyl)-3-(3-methoxy-4-(prop-2-yn-1-yloxy)phenyl)acrylamide]	> 300 µM	31.6 µM
COc1cc(/C=C/C(=O)Nc2ccccc2C(=O)O)ccc1OC1CCN(C)C1 (stereo not drawn) [Example 51, (E)-2-(3-(3-methoxy-4-((1-methylpyrrolidin-3-yl)oxy)phenyl)acrylamido)benzoic acid]	> 300 µM	15.5 µM
COc1ccc(/C=C/C(=O)N2CCOc3ccccc32)c(OCCN(C)C)c1OC [Example 115, (E)-1-(2H-benzo[b][1,4]oxazin-4(3H)-yl)-3-(2-(2-(dimethylamino)ethoxy)-3,4-dimethoxyphenyl)-prop-2-en-1-one]	45.4 µM	7.03 µM
C#CCOc1c(/C=C/C(=O)Nc2ccccc2C(=O)O)ccc(OC)c1OC [Example 95, (E)-2-(3-(3,4-dimethoxy-2-(prop-2-yn-1-yloxy)phenyl)acrylamido)benzoic Acid]	111 µM	17.6 µM
C#CCOc1ccc(/C=C/C(=O)Nc2ccccc2-c2cn[nH]c2)cc1OC [Example 24, (E)-N-(2-(1H-pyrazol-4-yl)phenyl)-3-(3-methoxy-4-(prop-2-yn-1-yloxy)phenyl)acrylamide]	41.4 µM	13 µM
CN1C(=O)COc2ccc(/C=C/C(=O)Nc3ccccc3C(=O)O)cc21 [Example 112, (E)-2-(3-(4-methyl-3-oxo-3,4-dihydro-2H-benzo[b][1,4]oxazin-6-yl)acrylamido)benzoic acid]	> 300 µM	13 µM
COc1cc(C2CC2C(=O)Nc2ccc(Cl)cc2)ccc1OCC1COC1 (stereo not drawn) [Example 154, N-(4-chlorophenyl)-2-(3-methoxy-4-(oxetan-3-ylmethoxy)phenyl)cyclopropane-1-carboxamide]	> 300 µM	8.97 µM
C#CCOc1ccc(C2CC2C(=O)n2nc(O)c3ccccc32)cc1OC (stereo not drawn) [Example 134, (3-hydroxy-1H-indazol-1-yl)(2-(3-methoxy-4-(prop-2-yn-1-yloxy)phenyl)cyclopropyl)methanone]	> 300 µM	17.5 µM
C#CCOc1ccc(/C=C/C(=O)Nc2ccccc2C(=O)O)c(OCCCN(C)C)c1OC [Example 86, 2-[[(E)-3-[2-[3-(dimethylamino)propoxy]-3-methoxy-4-prop-2-ynoxy-phenyl]prop-2-enoyl]amino]benzoic acid]	> 300 µM	24.9 µM

SMILES	CC50 at 48 h [1]	IC50 [2]
C#CCOc1ccc(/C=C/C(=O)Nc2ccccc2C(=O)NCc2ccncc2)cc1OC [Example 45, (E)-2-(3-(3-methoxy-4-(prop-2-yn-1-yloxy)phenyl)acrylamido)-N-(pyridin-4-ylmethyl)benzamide]	307 µM	12.9 µM
C#CCOc1ccc(/C=C/C(=O)n2nc(O)c3ccccc32)cc1CC [Example 126, (E)-3-(3-ethyl-4-(prop-2-yn-1-yloxy)phenyl)-1-(3-hydroxy-1H-indazol-1-yl)prop-2-en-1-one]	> 27.5 µM	3.81 µM
COc1ccc(/C=C/C(=O)Nc2ccccc2C(=O)O)cc1OCCc1ccncc1 [Example 65, (E)-2-(3-(4-methoxy-3-(2-(pyridin-4-yl)ethoxy)phenyl)acrylamido)benzoic acid]	152 µM	18.3 µM
C#CCOc1ccc(/C=C/C(=O)Nc2ccccc2C(=O)Nc2ccncc2)cc1OC [Example 44, (E)-2-(3-(3-methoxy-4-(prop-2-yn-1-yloxy)phenyl)acrylamido)-N-(pyridin-4-yl)benzamide]	11.1 µM	13.2 µM
C#CCOc1ccc(/C=C/C(=O)Nc2ccccc2-c2nn[nH]n2)cc1OC [Example 16, (E)-N-(2-(2H-tetrazol-5-yl)phenyl)-3-(3-methoxy-4-(prop-2-yn-1-yloxy)phenyl)acrylamide]	107 µM	22.3 µM
C#CCOc1ccc(/C=C/C(=O)Nc2ccccc2C(=O)O)c(OCCN(C)C)c1OC [Example 78, (E)-2-(3-(2-(2-(dimethylamino)ethoxy)-3-methoxy-4-(prop-2-yn-1-yloxy)phenyl)acrylamido)-benzoic acid]	404 µM	30.4 µM
COc1cc(/C=C/C(=O)Nc2ccccc2C(=O)O)ccc1CN1CCOCC1 [Example 69, (E)-2-(3-(3-methoxy-4-(morpholinomethyl)phenyl)acrylamido)benzoic acid]	691 µM	48.4 µM
COc1cc(/C=C/C(=O)Nc2ccc(F)cc2)ccc1OC1CCN(C)C1 (stereo not drawn) [Example 132, (E)-N-(4-fluorophenyl)-3-(3-methoxy-4-((1-methylpyrrolidin-3-yl)oxy)phenyl)actylamide trifluoroacetic acid salt]	16.6 µM	12 µM
C#CCOc1ccc(/C=C/C(=O)Nc2ccccc2-c2c[nH]cn2)cc1OC [Example 25, (E)-N-(2-(1H-imidazol-4-yl)phenyl)-3-(3-methoxy-4-(prop-2-yn-1-yloxy)phenyl)acrylamide]	> 300 µM	45.5 µM
C#CCOc1ccc(/C=C/C(=O)Nc2ccccc2C(=O)NCCOC)cc1OC [Example 33, (E)-2-(3-(3-methoxy-4-(prop-2-yn-1-yloxy)phenyl)acrylamido)-N-(2-methoxyethyl)benzamide]	199 µM	29.2 µM
C#CCOc1ccc(/C=C/C(=O)Nc2ccccc2C#N)c(OC2CCNC2)c1OC (stereo not drawn) [Example 82, (E)-N-(2-cyanophenyl)-3-(3-methoxy-4-prop-2-ynoxy-2-pyrrolidin-3-yloxy-phenyl)prop-2-enamide]	13.5 µM	3.42 µM
C#CCOc1ccc(/C=C/C(=O)Nc2ccc(C#N)cc2)cc1CC [Example 124, (E)-N-(4-cyanophenyl)-3-(3-ethyl-4-(prop-2-yn-1-yloxy)phenyl)acrylamide]	> 300 µM	34.8 µM
COc1cc(/C=C/C(=O)Nc2ccccc2C(=O)O)ccc1OCc1ccncc1 [Example 58, (E)-2-(3-(3-methoxy-4-(pyridin-4-ylmethoxy)phenyl)acrylamido)benzoic acid]	266 µM	39.2 µM
C#CCOc1ccc(/C=C/C(=O)N2CCCc3ccccc32)cc1OC [Example 10, (E)-1-(3,4-dihydroquinolin-1(2H)-yl)-3-(3-methoxy-4-(prop-2-yn-1-yloxy)phenyl)prop-2-en-1-one]	66.4 µM	6.04 µM
C#CCOc1ccc(/C=C/C(=O)Nc2ccccc2C(=O)NCC2CCN(C)CC2)cc1OC [Example 37, (E)-2-(3-(3-methoxy-4-(prop-2-yn-1-yloxy)phenyl)acrylamido)-N-((1-methylpiperidin-4-yl)methyl)benzamide]	29.2 µM	18 µM
C#CCOc1ccc(/C=C/C(=O)Nc2ccccc2-c2nnco2)cc1OC [Example 21, (E)-N-(2-(1,3,4-oxadiazol-2-yl)phenyl)-3-(3-methoxy-4-(prop-2-yn-1-yloxy)phenyl)acrylamide]	> 300 µM	25 µM
COCc1cc(/C=C/C(=O)Nc2ccccc2C(=O)O)ccc1OC [Example 73, (E)-2-(3-(4-methoxy-3-(methoxymethyl)phenyl)acrylamido)benzoic acid]	> 300 µM	33.1 µM
C#CCOc1ccc(/C=C/C(=O)Nc2ccc(Cl)c(Cl)c2)cc1OC [Example 7, (E)-N-(3,4-dichlorophenyl)-3-(3-methoxy-4-(prop-2-yn-1-yloxy)phenyl)acrylamide]	62.5 µM	1.97 µM
